Experimental data reported in patent publication US20250346600A1, “TRICYCLIC DERIVATIVES AND RELATED USES” (MOMA Therapeutics, Inc., priority 2023, published 2025).

Key:
[1] = biological target: T1, Full length WRN protein (aa 2-1432) (Homo sapiens (Human), UniProt Q14191); test: WRN ATPase ADP-Glo biochemical assay, Assay Format A (10 μM ATP); settings: 0.25 nM WRN, 100 nM C6.18 ssDNA, 30 min preincubation, read-out: ATPase ADPGlo AC50 (uM)- Assay Format A
Text: Full length Werner helicase construct (Uniprot: Q14191) with an N-terminal FLAG-AVI-TEV tag was expressed using the Sf9 cell/baculovirus expression system. The harvested cell pellet was resuspended and lysed in a glass homogenizer. After insoluble material was removed by centrifugation, the helicase protein was first purified with FLAG affinity resin and then further purified through a size-exclusion chromatography column. Peak fractions containing the purified protein were concentrated, split into aliquots and frozen in liquid nitrogen to be thawed before use. Biochemical Assay Description (ATPase activity)-Assay Format A WRN activity was measured using an ATPase assay. Full length WRN protein (aa 2-1432) (production described separately) was used for the biochemical activity assays. The 39-mer ssDNA “C6.18” [NT] was purchased from IDT and used as a substrate. Quantification of ATP hydrolysis was evaluated using the ADP-Glo assay kit (Promega, Madison, WI). An enzyme titration time-course was performed to determine the optimal assay conditions. […] To evaluate the inhibitory effects of the compounds, 11-point 3-fold serial dilutions were prepared in DMSO. 50 nL of each concentration in duplicate was preincubated for 30 minutes in a 384-well microplate (Greiner #784075) with 5 μL of 0.5 nM WRN in assay buffer. The reaction was initiated by adding 5 μL of 200 nM C6.18 DNA with 20 μM ATP and was allowed to proceed for 30 minutes at room temperature. The reaction was stopped with 10 μL ADP-Glo reagent for 1 hour to remove unreacted ATP. Lastly, 20 μL ATP detection reagent was added and incubated for 1 hour to generate the luminescence signal. Control wells included “high controls” with no inhibition (DMSO, no compound) and “low controls” with maximum inhibition (no WRN). Luminescence was recorded on a PHERAstar (BMG Labtech, Ortenberg, Germany). Data was fit using the “Smart Fit” method within the Genedata Screener Software (Basel, Switzerland) to obtain IC50 values using four-parameter fits. Reported IC50s are the geometric means of at least two independent trials.

[2] = biological target: T1, Full length WRN protein (aa 2-1432); test: WRN ATPase ADP-Glo biochemical assay, Assay Format B (100 μM ATP); settings: 0.25 nM WRN, 100 nM C6.18 ssDNA, 60 min preincubation, read-out: ATPase ADPGlo AC50 (uM)- Assay Format B
[3] = test system: HCT116 cells; test: HCT116 (MSI) 7 day viability, CellTiter Glo; assay type: cell-based; settings: Homo sapiens, HCT-116, 168 h, 7 days, read-out: HCT116 (MSI) Viability 7 Day Abs AC50
Procedure, shortened: (§1)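 10 mM DMSO stocks serially diluted 3-fold, 10 steps; cells added (HCT116 50/well, HT29 500/well); 7 d, 37 °C, 5% CO2; CellTiter Glo 20 min RT; luminescence.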

[4] = test system: HT29 cells; test: HT29 (MSS) 7 day viability, CellTiter Glo; assay type: cell-based; settings: Homo sapiens, HT-29, 168 h, 7 days, read-out: HT29 (MSS) Viability 7 Day CTGAbs AC50
Procedure, shortened: as §1

T1 sequence (Q14191 2-1432): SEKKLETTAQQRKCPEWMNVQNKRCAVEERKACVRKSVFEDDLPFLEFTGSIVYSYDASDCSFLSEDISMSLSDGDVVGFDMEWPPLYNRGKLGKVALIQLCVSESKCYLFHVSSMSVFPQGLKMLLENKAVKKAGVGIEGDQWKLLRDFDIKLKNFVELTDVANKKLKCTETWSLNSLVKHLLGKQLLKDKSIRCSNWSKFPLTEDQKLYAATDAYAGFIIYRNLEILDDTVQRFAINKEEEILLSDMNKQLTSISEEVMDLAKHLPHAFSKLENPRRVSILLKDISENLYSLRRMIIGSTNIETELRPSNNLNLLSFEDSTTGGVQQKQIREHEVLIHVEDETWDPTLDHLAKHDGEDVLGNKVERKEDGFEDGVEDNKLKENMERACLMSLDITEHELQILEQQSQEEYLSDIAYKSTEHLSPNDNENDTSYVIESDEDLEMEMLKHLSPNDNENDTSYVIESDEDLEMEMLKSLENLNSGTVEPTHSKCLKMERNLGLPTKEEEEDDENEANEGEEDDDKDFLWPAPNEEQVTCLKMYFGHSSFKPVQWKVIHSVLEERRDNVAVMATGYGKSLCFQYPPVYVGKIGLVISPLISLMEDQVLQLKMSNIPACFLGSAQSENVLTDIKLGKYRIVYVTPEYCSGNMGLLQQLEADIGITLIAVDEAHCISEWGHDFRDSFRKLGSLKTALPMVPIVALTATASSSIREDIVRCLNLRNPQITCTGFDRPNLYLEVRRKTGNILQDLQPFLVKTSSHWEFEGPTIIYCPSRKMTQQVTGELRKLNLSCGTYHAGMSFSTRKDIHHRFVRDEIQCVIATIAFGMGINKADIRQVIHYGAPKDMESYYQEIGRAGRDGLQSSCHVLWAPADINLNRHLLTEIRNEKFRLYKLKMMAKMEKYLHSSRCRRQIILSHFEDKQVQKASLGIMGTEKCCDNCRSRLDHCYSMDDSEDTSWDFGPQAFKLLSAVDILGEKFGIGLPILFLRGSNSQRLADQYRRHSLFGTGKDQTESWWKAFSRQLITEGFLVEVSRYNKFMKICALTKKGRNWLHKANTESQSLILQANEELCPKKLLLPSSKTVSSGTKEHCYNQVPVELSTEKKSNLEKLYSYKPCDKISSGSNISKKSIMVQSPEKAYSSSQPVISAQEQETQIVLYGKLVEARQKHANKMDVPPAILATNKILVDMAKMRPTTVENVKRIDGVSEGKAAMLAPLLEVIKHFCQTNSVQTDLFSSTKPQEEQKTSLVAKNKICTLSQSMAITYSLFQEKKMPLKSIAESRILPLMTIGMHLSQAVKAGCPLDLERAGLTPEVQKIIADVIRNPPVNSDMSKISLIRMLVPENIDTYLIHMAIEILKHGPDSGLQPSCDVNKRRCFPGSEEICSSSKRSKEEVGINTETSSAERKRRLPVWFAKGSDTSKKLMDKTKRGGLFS

SMILES	AC50 [1]	AC50 [2]	AC50 [3]	AC50 [4]
C=CC(=O)N1CCc2nn(-c3ccc(C4CC4)cc3)c3c2C(C1)N(C(=O)c1cnc(C(F)(F)F)c(O)c1)CC3 (stereo not shown) [Compound 1, 1-(2-(4-cyclopropylphenyl)-5-(5-hydroxy-6-(trifluoromethyl)nicotinoyl)-2,3,4,5,5a,6,8,9-octahydro-7H-1,2,5,7-tetraazabenzo[cd]azulen-7-yl)prop-2-en-1-one]	0.0015 to 0.005 µM	0.015 to 0.055 µM	0.1 to 0.25 µM	> 3 µM
C=CC(=O)N1CCc2nn(-c3ccc(CC(F)(F)F)cc3O)c3c2C(C1)N(C(=O)c1ccc(Br)c2[nH]cnc12)CC3 (stereo not shown) [Compound 2, 1-(5-(7-bromo-1H-benzo[d]imidazole-4-carbonyl)-2-(2-hydroxy-4-(2,2,2-trifluoroethyl)phenyl)-2,3,4,5,5a,6,8,9-octahydro-7H-1,2,5,7-tetraazabenzo[cd]azulen-7-yl)prop-2-en-1-one]	< 0.0015 µM	0.005 to 0.015 µM	0.001 to 0.1 µM	> 3 µM
C=CC(=O)N1CCc2nn(-c3ccc(C(F)(F)F)cc3O)c3c2C(C1)N(C(=O)c1ccc(Br)c2[nH]cnc12)CC3 (stereo not shown) [Compound 3, 1-(5-(7-bromo-1H-benzo[d]imidazole-4-carbonyl)-2-(2-hydroxy-4-(trifluoromethyl)phenyl)-2,3,4,5,5a,6,8,9-octahydro-7H-1,2,5,7-tetraazabenzo[cd]azulen-7-yl)prop-2-en-1-one]	0.0015 to 0.005 µM	0.015 to 0.055 µM	0.001 to 0.1 µM	> 3 µM
C=CC(=O)N1CCc2nn(-c3ccc(C45CC(C4)C5)cc3)c3c2C(C1)N(C(=O)c1ccc(Br)c2[nH]cnc12)CC3 (stereo not shown) [Compound 4, 1-(2-(4-(bicyclo[1.1.1]pentan-1-yl)phenyl)-5-(7-bromo-1H-benzo[d]imidazole-4-carbonyl)-2,3,4,5,5a,6,8,9-octahydro-7H-1,2,5,7-tetraazabenzo[cd]azulen-7-yl)prop-2-en-1-one]	< 0.0015 µM	0.015 to 0.055 µM	0.001 to 0.1 µM	> 3 µM
C=CC(=O)N1CCc2nn(-c3ccc(C4CC4)cc3O)c3c2C(C1)N(C(=O)c1ccc(Br)c2[nH]cnc12)CC3 (stereo not shown) [Compound 5, 1-(5-(7-bromo-1H-benzo[d]imidazole-4-carbonyl)-2-(4-cyclopropyl-2-hydroxyphenyl)-2,3,4,5,5a,6,8,9-octahydro-7H-1,2,5,7-tetraazabenzo[cd]azulen-7-yl)prop-2-en-1-one]	< 0.0015 µM	0.005 to 0.015 µM	0.001 to 0.1 µM	> 3 µM
C=CC(=O)N1CCc2nn(-c3ccc(C4CCC4(F)F)cc3O)c3c2C(C1)N(C(=O)c1ccc(Br)c2[nH]cnc12)CC3 (stereo not shown) [Compound 6, 1-(5-(7-bromo-1H-benzo[d]imidazole-4-carbonyl)-2-(4-(2,2-difluorocyclobutyl)-2-hydroxyphenyl)-2,3,4,5,5a,6,8,9-octahydro-7H-1,2,5,7-tetraazabenzo[cd]azulen-7-yl)prop-2-en-1-one]	0.0015 to 0.005 µM	0.015 to 0.055 µM	0.001 to 0.1 µM	> 3 µM
C=CC(=O)N1CCc2nn(-c3ccc(C(C)C)cc3)c3c2C(C1)N(C(=O)c1ccc(Br)c2[nH]cnc12)CC3 (stereo not shown) [Compound 7, 1-(5-(7-bromo-1H-benzo[d]imidazole-4-carbonyl)-2-(4-isopropylphenyl)-2,3,4,5,5a,6,8,9-octahydro-7H-1,2,5,7-tetraazabenzo[cd]azulen-7-yl)prop-2-en-1-one]	< 0.0015 µM	0.005 to 0.015 µM	0.001 to 0.1 µM	> 3 µM
C=CC(=O)N1CCc2nn(-c3ccc(C4CC4)cc3)c3c2C(C1)N(C(=O)c1ccc(OCC(F)(F)F)nc1)CC3 (stereo not shown) [Compound 118, 1-(2-(4-cyclopropylphenyl)-5-(6-(2,2,2-trifluoroethoxy)nicotinoyl)-2,3,4,5,5a,6,8,9-octahydro-7H-1,2,5,7-tetraazabenzo[cd]azulen-7-yl)prop-2-en-1-one]	> 0.055 µM	–	> 1 µM	> 3 µM
C=CC(=O)N1CCc2nn(-c3ccc(C4CC4)cc3)c3c2C(C1)N(C(=O)c1ccc(C2(C#N)CC2)nc1)CC3 (stereo not shown) [Compound 119, 1-(5-(7-acryloyl-2-(4-cyclopropylphenyl)-3,4,5,5a,6,7,8,9-octahydro-2H-1,2,5,7-tetraazabenzo[cd]azulene-5-carbonyl)pyridin-2-yl)cyclopropane-1-carbonitrile]	0.015 to 0.055 µM	–	> 1 µM	> 3 µM
C=CC(=O)N1CCc2nn(-c3ccc(C4CC4)cc3)c3c2C(C1)N(C(=O)c1cnc([N+](=O)[O-])c(O)c1)CC3 (stereo not shown) [Compound 120, 1-(2-(4-cyclopropylphenyl)-5-(5-hydroxy-6-nitronicotinoyl)-2,3,4,5,5a,6,8,9-octahydro-7H-1,2,5,7-tetraazabenzo[cd]azulen-7-yl)prop-2-en-1-one]	0.0015 to 0.005 µM	–	> 1 µM	> 3 µM
C=CC(=O)N1CCc2nn(-c3ccc(C4CC4)cc3)c3c2C(C1)N(C(=O)c1ccc(OC(C)C)nc1)CC3 (stereo not shown) [Compound 122, 1-(2-(4-cyclopropylphenyl)-5-(6-isopropoxynicotinoyl)-2,3,4,5,5a,6,8,9-octahydro-7H-1,2,5,7-tetraazabenzo[cd]azulen-7-yl)prop-2-en-1-one]	0.015 to 0.055 µM	–	0.5 to 1 µM	> 3 µM
C=CC(=O)N1CCc2nn(-c3ccc(C4CC4)cc3)c3c2C(C1)N(C(=O)c1ccc(C#N)nc1)CC3 (stereo not shown) [Compound 123, 5-(7-acryloyl-2-(4-cyclopropylphenyl)-3,4,5,5a,6,7,8,9-octahydro-2H-1,2,5,7-tetraazabenzo[cd]azulene-5-carbonyl)picolinonitrile]	0.015 to 0.055 µM	–	0.25 to 0.5 µM	> 3 µM
C=CC(=O)N1CCc2nn(-c3ccc(C4CC4)cc3)c3c2C(C1)N(C(=O)c1ccc(C(F)F)nc1)CC3 (stereo not shown) [Compound 126, 1-(2-(4-cyclopropylphenyl)-5-(6-(difluoromethyl)nicotinoyl)-2,3,4,5,5a,6,8,9-octahydro-7H-1,2,5,7-tetraazabenzo[cd]azulen-7-yl)prop-2-en-1-one]	0.005 to 0.015 µM	–	0.25 to 0.5 µM	> 3 µM
C=CC(=O)N1CCc2nn(-c3ccc(C4CCC4)cc3O)c3c2C(C1)N(C(=O)c1cnc(Br)c2[nH]cnc12)CC3 (stereo not shown) [Compound 137, 1-(5-(4-bromo-3H-imidazo[4,5-c]pyridine-7-carbonyl)-2-(4-cyclobutyl-2-hydroxyphenyl)-2,3,4,5,5a,6,8,9-octahydro-7H-1,2,5,7-tetraazabenzo[cd]azulen-7-yl)prop-2-en-1-one]	< 0.0015 µM	–	0.001 to 0.1 µM	> 3 µM
C=CC(=O)N1CCc2nn(-c3ccc(C4CCC4)cc3O)c3c2C(C1)N(C(=O)c1cnc(C(F)(F)F)c2[nH]ncc12)CC3 (stereo not shown) [Compound 151, 1-(2-(4-cyclobutyl-2-hydroxyphenyl)-5-(7-(trifluoromethyl)-1H-pyrazolo[3,4-c]pyridine-4-carbonyl)-2,3,4,5,5a,6,8,9-octahydro-7H-1,2,5,7-tetraazabenzo[cd]azulen-7-yl)prop-2-en-1-one]	< 0.0015 µM	–	0.001 to 0.1 µM	> 3 µM
C=CC(=O)N1CCc2nn(-c3ccc(C4CCC4)cc3O)c3c2C(C1)N(C(=O)c1ncc(C(F)(F)F)c2[nH]cnc12)CC3 (stereo not shown) [Compound 154, 1-(2-(4-cyclobutyl-2-hydroxyphenyl)-5-(7-(trifluoromethyl)-1H-imidazo[4,5-c]pyridine-4-carbonyl)-2,3,4,5,5a,6,8,9-octahydro-7H-1,2,5,7-tetraazabenzo[cd]azulen-7-yl)prop-2-en-1-one]	< 0.0015 µM	–	0.001 to 0.1 µM	> 3 µM
C=CC(=O)N1CCc2nn(-c3ccc(C(C)C)cc3)c3c2C(C1)N(C(=O)C1CC1)CC3 (stereo not shown) [Compound 170, 1-(5-(cyclopropanecarbonyl)-2-(4-isopropylphenyl)-2,3,4,5,5a,6,8,9-octahydro-7H-1,2,5,7-tetraazabenzo[cd]azulen-7-yl)prop-2-en-1-one]	> 0.055 µM	–	> 1 µM	> 3 µM
